From EPA's ToxValDB 9.5 (doi:10.2903/j.efsa.2009.343r)

Assays:
Typhlodromus pyri [1] = assay: LR50; higher = less toxic; settings: not reported; mortality
Oryctolagus sp. = settings: reproduction developmental; body weight
Tagia sp. = settings: acute; duration: 14 days; mortality
Oncorhynchus mykiss = settings: acute; duration: 96 hours; mortality
Daphnia magna = settings: chronic/long-term; duration: 21 days
Anas platyrhynchos = settings: oral, mortality
Pimephales promelas = settings: chronic/long-term; duration: 36 days; development
Apis mellifera = settings: acute; duration: 48 hours; oral; unspecified; mortality
Canidae = settings: subchronic; duration: 90 days; oral; Dog Other; histopathology: nonneoplastic
Typhlodromus pyri [2] = settings: not reported; F; reproduction
Colinus virginianus = settings: for NOEL: reproduction developmental

COc1cnc(OC)n2nc(NS(=O)(=O)c3c(OCC(F)F)cccc3C(F)(F)F)nc12 [Penoxsulam]
LR50 (Typhlodromus pyri [1]): 7.46 g/ha | NOAEL (Oryctolagus sp.): 25 mg/kg-day | LC50 (Tagia sp.): > 1000 mg/kg | LC50 (Oncorhynchus mykiss): > 100 µg/mL | NOEC (Daphnia magna): 3.33 mg/L | LD50 (Anas platyrhynchos; acute, unspecified): > 2000 mg/kg-day | LC50 (Anas platyrhynchos; short-term, duration: 8 days, feed): > 1120 mg/kg-day | NOEC (Pimephales promelas): 10 mg/L | LD50 (Apis mellifera): > 100 µg/piece | NOAEL (Canidae): 18 mg/kg-day | LEL (Typhlodromus pyri [2]): 4 g/ha | LC50 (Colinus virginianus; acute, duration: 8 days, oral, diet, mortality): > 804 mg/kg-day | NOEL (Colinus virginianus; F): 80.1 mg/kg-day | NOEL (Colinus virginianus; M): 82.5 mg/kg-day | LD50 (Rattus norvegicus; acute, oral, mortality): > 5000 mg/kg-day | NOAEL (Rattus norvegicus; chronic, duration: 2 years, histopathology: nonneoplastic): 5 mg/kg-day | NOAEL (Rattus norvegicus; reproduction developmental, body weight): 100 mg/kg-day | NOAEL (Rattus norvegicus; reproduction developmental, reproduction): 300 mg/kg-day
